For data set [1], the target named is Mitogen-activated protein kinase 3 (Homo sapiens, UniProt P27361). The data set can be described thus: Inhibition of ERK1 (unknown origin) using peptide substrate measured after 45 mins by IMAP assay.
Data set [2] deals with Mitogen-activated protein kinase 1 (Homo sapiens, UniProt P28482). Put plainly: Inhibition of ERK2 (unknown origin) using peptide substrate measured after 45 mins by IMAP assay.
Data set [3] deals with HT-29. Put plainly: Antiproliferative activity against human HT-29 cells harboring BRAF V600E/D mutant measured after 4 days. It counts as functional, cell-based. Conditions: HT-29, 96 h.
The test system of data set [4] is COLO 205. The data set can be described thus: Antiproliferative activity against human COLO205 cells harboring BRAF V600E/D mutant measured after 4 days. To be noted: COLO 205, 96 h. It counts as functional, cell-based.
For data set [5], the target named is T1, hERG (KCNH2) (Homo sapiens, UniProt Q12809). Put plainly: Inhibition of human ERG at 1.5 mg/ml by binding assay relative to control. The arrangement: dose or concentration left out as unconfirmed.
In data set [6] the target is T1, hERG (KCNH2). Put plainly: Inhibition of human ERG at 5 mg/ml by binding assay relative to control. The arrangement: dose or concentration left out as unconfirmed.
The nature of data set [7]: Plasma clearance in rat. In kind it is ADME, organism-based.
Data set [8] is described as follows: Half life in rat. It counts as ADME, organism-based. Conditions: in vivo.
A short description of data set [9]: Mean residence time in rat. It counts as ADME, organism-based. Conditions: in vivo.
In data set [10] the target is T1, hERG (KCNH2). Put plainly: Inhibition of human ERG at 1 uM by IonWork assay relative to control.
Data set [11] addresses T1, hERG (KCNH2). Put plainly: Inhibition of human ERG at 10 uM by IonWork assay relative to control.
Data set [12] in a line: Clearance in human hepatocytes assessed per million cells. It counts as ADME, cell-based, Hepatocyte.
A short description of data set [13]: Clearance in dog hepatocytes assessed per million cells. In kind it is ADME, cell-based, Canis lupus familiaris, Hepatocyte.
A short description of data set [14]: AUC in rat at 10 mg/kg. It counts as ADME, organism-based. To be noted: in vivo.
The nature of data set [15]: AUC in dog at 10 mg/kg. To be noted: in vivo. In kind it is ADME, organism-based, Canis lupus familiaris.
The target of data set [16] is Cytochrome P450 3A4 (Homo sapiens, UniProt P08684). The data set can be described thus: Inhibition of CYP3A4 (unknown origin) preincubated followed by substrate addition. In kind it is ADME.
Data set [17] is described as follows: Drug metabolism in bile duct-cannulated rat bile assessed as oxidative dealkylation by measuring loss of isopropyl group at 10 mg/kg, iv by LC/ESI-MS/MS analysis. It counts as ADME, organism-based. Conditions: in vivo.
A short description of data set [18]: Drug metabolism in bile duct-cannulated rat bile assessed as oxidative dealkylation by measuring amide cleavage at 10 mg/kg, iv by LC/ESI-MS/MS analysis. In kind it is ADME, organism-based. Conditions: in vivo.
Data set [19] can be described thus: Drug metabolism in bile duct-cannulated rat bile assessed as oxidation at 10 mg/kg, iv by LC/ESI-MS/MS analysis. It counts as ADME, organism-based. Conditions: in vivo.
The nature of data set [20]: Drug metabolism in bile duct-cannulated rat bile assessed as conjugation at 10 mg/kg, iv by LC/ESI-MS/MS analysis. It counts as ADME, organism-based. Conditions: in vivo.
A short description of data set [21]: Drug metabolism in bile duct-cannulated rat urine assessed as oxidative dealkylation by measuring loss of isopropyl group at 10 mg/kg, iv by LC/ESI-MS/MS analysis. Conditions: in vivo. In kind it is ADME, organism-based.
The nature of data set [22]: Drug metabolism in bile duct-cannulated rat urine assessed as oxidative dealkylation by measuring amide cleavage at 10 mg/kg, iv by LC/ESI-MS/MS analysis. It counts as ADME, organism-based. Conditions: in vivo.
A short description of data set [23]: Drug metabolism in bile duct-cannulated rat urine assessed as oxidation at 10 mg/kg, iv by LC/ESI-MS/MS analysis. In kind it is ADME, organism-based. To be noted: in vivo.
Data set [24] in a line: Drug metabolism in bile duct-cannulated rat urine assessed as conjugation at 10 mg/kg, iv by LC/ESI-MS/MS analysis. It counts as ADME, organism-based. Conditions: in vivo.
Data set [25] can be described thus: Drug metabolism in bile duct-cannulated rat plasma assessed as oxidative dealkylation by measuring loss of isopropyl group at 10 mg/kg, iv by LC/ESI-MS/MS analysis. It counts as ADME, organism-based. To be noted: in vivo.
Data set [26] in a line: Drug metabolism in bile duct-cannulated rat plasma assessed as oxidative dealkylation by measuring amide cleavage at 10 mg/kg, iv by LC/ESI-MS/MS analysis. In kind it is ADME, organism-based. To be noted: in vivo.
Data set [27] can be described thus: Drug metabolism in bile duct-cannulated rat plasma assessed as oxidation at 10 mg/kg, iv by LC/ESI-MS/MS analysis. In kind it is ADME, organism-based. Conditions: in vivo.
The nature of data set [28]: Drug metabolism in bile duct-cannulated rat plasma assessed as conjugation at 10 mg/kg, iv by LC/ESI-MS/MS analysis. It counts as ADME, organism-based. Conditions: in vivo.
Data set [29] is described as follows: Drug metabolism in bile duct-cannulated rat urine assessed as glutathione conjugation at 10 mg/kg, iv by LC/ESI-MS/MS analysis. It counts as ADME, organism-based. Conditions: in vivo.
A short description of data set [30]: Drug metabolism in bile duct-cannulated rat plasma assessed as glutathione conjugation at 10 mg/kg, iv by LC/ESI-MS/MS analysis. It counts as ADME, organism-based. To be noted: in vivo.

Molecules are shown by their SMILES.

T1 sequence (Q12809 whole entry): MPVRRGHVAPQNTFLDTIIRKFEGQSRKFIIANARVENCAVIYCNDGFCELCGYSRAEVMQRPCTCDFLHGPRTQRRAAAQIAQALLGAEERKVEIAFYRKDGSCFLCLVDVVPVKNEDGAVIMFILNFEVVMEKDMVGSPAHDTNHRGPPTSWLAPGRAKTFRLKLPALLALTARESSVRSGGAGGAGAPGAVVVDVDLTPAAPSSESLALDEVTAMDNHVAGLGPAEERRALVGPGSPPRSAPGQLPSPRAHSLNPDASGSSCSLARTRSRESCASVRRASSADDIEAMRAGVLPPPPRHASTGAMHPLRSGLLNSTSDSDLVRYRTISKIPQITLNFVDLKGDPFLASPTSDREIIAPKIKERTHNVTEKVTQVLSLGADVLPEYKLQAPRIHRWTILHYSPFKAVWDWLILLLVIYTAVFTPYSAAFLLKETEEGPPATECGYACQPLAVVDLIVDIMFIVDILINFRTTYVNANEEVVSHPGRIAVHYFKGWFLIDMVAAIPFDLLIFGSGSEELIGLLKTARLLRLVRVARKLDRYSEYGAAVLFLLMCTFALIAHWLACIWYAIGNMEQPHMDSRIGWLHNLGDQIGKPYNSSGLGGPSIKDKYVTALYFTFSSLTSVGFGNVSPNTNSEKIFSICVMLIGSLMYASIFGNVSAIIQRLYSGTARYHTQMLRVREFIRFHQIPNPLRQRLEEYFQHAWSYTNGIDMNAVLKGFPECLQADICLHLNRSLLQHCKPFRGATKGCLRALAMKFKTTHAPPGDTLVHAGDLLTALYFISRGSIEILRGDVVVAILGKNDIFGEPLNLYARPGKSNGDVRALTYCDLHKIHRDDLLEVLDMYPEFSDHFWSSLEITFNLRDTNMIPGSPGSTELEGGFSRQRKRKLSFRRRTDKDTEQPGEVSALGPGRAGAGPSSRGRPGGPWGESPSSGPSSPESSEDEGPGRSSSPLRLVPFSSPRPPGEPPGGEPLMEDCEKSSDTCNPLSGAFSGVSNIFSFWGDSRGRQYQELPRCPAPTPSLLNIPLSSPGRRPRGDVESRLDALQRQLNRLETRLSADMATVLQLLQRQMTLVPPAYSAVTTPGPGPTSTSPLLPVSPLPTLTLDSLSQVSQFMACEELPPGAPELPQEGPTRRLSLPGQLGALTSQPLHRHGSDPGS
Chain of Mitogen-activated protein kinase 3 (P27361 whole entry): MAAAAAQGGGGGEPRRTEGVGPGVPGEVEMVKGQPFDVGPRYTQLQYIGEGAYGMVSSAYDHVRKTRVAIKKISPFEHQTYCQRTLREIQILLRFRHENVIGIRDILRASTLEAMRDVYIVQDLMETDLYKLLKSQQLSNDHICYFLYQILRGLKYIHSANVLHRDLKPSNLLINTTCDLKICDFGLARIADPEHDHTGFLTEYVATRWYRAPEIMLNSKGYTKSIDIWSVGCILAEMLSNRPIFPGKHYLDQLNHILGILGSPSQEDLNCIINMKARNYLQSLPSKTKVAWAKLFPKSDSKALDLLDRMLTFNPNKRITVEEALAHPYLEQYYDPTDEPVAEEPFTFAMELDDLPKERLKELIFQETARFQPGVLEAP
Chain of Mitogen-activated protein kinase 1 (P28482 whole entry): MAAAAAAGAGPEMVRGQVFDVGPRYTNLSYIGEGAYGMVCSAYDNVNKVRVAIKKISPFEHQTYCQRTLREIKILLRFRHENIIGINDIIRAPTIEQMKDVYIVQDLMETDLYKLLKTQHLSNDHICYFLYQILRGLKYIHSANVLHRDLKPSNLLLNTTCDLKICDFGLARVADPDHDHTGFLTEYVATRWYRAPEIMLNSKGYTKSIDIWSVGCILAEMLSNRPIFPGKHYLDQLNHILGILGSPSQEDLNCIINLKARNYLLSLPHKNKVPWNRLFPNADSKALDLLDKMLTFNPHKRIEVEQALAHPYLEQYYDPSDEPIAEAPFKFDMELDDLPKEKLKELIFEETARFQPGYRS
Chain of Cytochrome P450 3A4 (P08684 whole entry): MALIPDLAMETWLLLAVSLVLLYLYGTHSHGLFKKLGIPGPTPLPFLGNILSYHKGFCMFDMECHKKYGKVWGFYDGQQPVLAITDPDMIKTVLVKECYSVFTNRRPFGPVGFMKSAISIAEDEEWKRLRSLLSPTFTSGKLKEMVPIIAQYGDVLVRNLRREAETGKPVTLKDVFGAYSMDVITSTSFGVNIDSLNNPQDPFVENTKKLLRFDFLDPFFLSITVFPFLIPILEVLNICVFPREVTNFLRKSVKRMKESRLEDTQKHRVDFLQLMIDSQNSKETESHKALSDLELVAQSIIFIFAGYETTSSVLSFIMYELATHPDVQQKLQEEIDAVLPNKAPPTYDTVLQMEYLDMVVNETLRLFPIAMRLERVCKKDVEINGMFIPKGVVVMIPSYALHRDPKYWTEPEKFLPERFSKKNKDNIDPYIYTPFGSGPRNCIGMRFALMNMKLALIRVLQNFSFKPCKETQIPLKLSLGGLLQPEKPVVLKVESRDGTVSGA

Turning to `CS[C@@]1(C(=O)Nc2ccc3[nH]nc(-c4ccc(F)cc4)c3c2)CCN(CC(=O)N2CC=C(c3ccc(-c4ncccn4)cc3F)CC2)C1`, the IC50 in data set [1] is 135 nM; in data set [2], 25 nM; in data set [3], 209 nM; in [4] it was 83 nM. In addition, the inhibition in data set [5] amounted to 11%; in data set [6] it was 32%.
In the case of `CS[C@@]1(C(=O)Nc2ccc3[nH]nc(-c4ccnc(OC(C)C)c4)c3c2)CCN(CC(=O)N2CC=C(c3ccc(-c4ncn(C)n4)cc3)CC2)C1`, the IC50 in data set [1] worked out at 74 nM; in [2], 27 nM; in data set [3], 99 nM; in data set [4] it was 41 nM. Besides, the inhibition in [5] was 3%; in data set [6], 10%.
Consider `O=C(Nc1ccc2[nH]nc(-c3ccncc3)c2c1)[C@@H]1CCN(CC(=O)N2CCN(c3ccc(-c4ncccn4)cc3)CC2)C1`, for which the results for the IC50 in data set [1], in data set [3] and in [4] were 8 nM, 59 nM and 16 nM, respectively. In [7], the clearance was determined as 122 mL/min/kg. Moreover, in data set [8], the half-life is 1.5 h. In data set [9], this molecule had an MRT of 1.6 h.
As for `CS[C@]1(C(=O)Nc2ccc3[nH]nc(-c4ccc(OC(C)C)nc4)c3c2)CCN(CC(=O)N2CC=C(c3ccc(-c4ncn(C)n4)cc3)CC2)C1`, the IC50 in data set [2] was 729 nM; in data set [4], > 1000 nM. Moreover, the inhibition at 1 µM in data set [10] amounted to 6%. For the same molecule, in data set [11], the inhibition at 10 µM turned out to be 10%.
Take `CS[C@@]1(C(=O)Nc2ccc3[nH]nc(-c4ccc(OC(C)C)nc4)c3c2)CCN(CC(=O)N2CC=C(c3ccc(-c4ncccn4)cc3)CC2)C1`: the IC50 in [1] amounted to 93 nM; in [2], 13 nM; in [3], 79 nM; in data set [4], 57 nM. For the same molecule, the inhibition in [5] is 25%; in [6], 37%.
In the case of `CS[C@@]1(C(=O)Nc2ccc3[nH]nc(-c4ccc(F)cc4)c3c2)CCN(CC(=O)N2CCN(c3ccc(-c4ncccn4)cc3F)CC2)C1`, the IC50 in data set [1] came out at 663 nM; in [2], 114 nM.
`CS[C@@]1(C(=O)Nc2ccc3[nH]nc(-c4ccc(F)cc4)c3c2)CCN(CC(=O)N2CC=C(c3ccc(-c4ncccn4)cc3)CC2)C1`: the 50% inhibitory concentration (IC50) in data set [1] came out at 41 nM; in data set [3] it was 118 nM; in data set [4], 45 nM. The CLH in [12] stood at 18 µL/min; in data set [13] it was 7 µL/min. Also, the AUC in data set [14] is 25.9 to 26 µM·h; in [15], 17 µM·h.
As for `CS[C@@]1(C(=O)Nc2ccc3[nH]nc(-c4ccc(F)cc4)c3c2)CCN(CC(=O)N2CC=C(c3ncc(-c4ncccn4)s3)CC2)C1`, the IC50 in data set [1] was 207 nM; in [2] it was 36 nM; in [3], 543 nM; in [4] it was > 111 nM. Moreover, the inhibition in data set [5] was -5%; in data set [6] it was 10%.
For the molecule `COc1cc(-c2n[nH]c3ccc(NC(=O)[C@]4(SC)CCN(CC(=O)N5CC=C(c6ccc(-c7ncccn7)cc6)CC5)C4)cc23)ccn1`, the IC50 stood at 19 nM in data set [1], 5 nM in data set [2], 60 nM in data set [3] and 34 nM in data set [4]. The inhibition in data set [5] is 2%; in data set [6], 15%. Also, the inhibition at 1 µM in [10] stood at 7%. The inhibition at 10 µM in data set [11] is 19%.
For the molecule `CS[C@@]1(C(=O)Nc2ccc3[nH]nc(-c4ccc5c(c4)OCO5)c3c2)CCN(CC(=O)N2CC=C(c3ccc(-c4ncccn4)cc3)CC2)C1`, the IC50 amounted to 45 nM in [1]; 13 nM in data set [2]; 77 nM in [3]; 29 nM in data set [4]; 300 nM in data set [16]. Further, the inhibition worked out at 19% in data set [5] and 16% in data set [6]. For the same molecule, the AUC in data set [14] amounted to 106 µM·h.
Regarding `CS[C@@]1(C(=O)Nc2ccc3[nH]nc(-c4ccc(F)cc4)c3c2)CCN(CC(=O)N2CCN(c3ccc(-c4ncccn4)cc3)CC2)C1`, the IC50 in data set [1] was determined as 25 nM; in data set [3], 87 nM; in data set [4] it was 47 nM. For the same molecule, the values for the inhibition in data set [5] and in data set [6] were 3% and 47%, respectively.
As to `CCNc1ncc(-c2ccc(C3=CCN(C(=O)CN4CC[C@@](SC)(C(=O)Nc5ccc6[nH]nc(-c7ccnc(C)c7)c6c5)C4)CC3)cc2)s1`, the IC50 in data set [1] turned out to be 34 nM; in data set [2] it was 6 nM; in data set [3], 131 nM; in [4], 30 nM. For the same molecule, the inhibition in data set [5] was -7%; in data set [6], -3%.
Take `CS[C@@]1(C(=O)Nc2ccc3[nH]nc(-c4ccc(F)cc4)c3c2)CCN(CC(=O)N2CC=C(c3nc(-c4ncccn4)cs3)CC2)C1`: the results for the IC50 in [1] and in data set [2] were 952 nM and 291 nM, respectively. In addition, the inhibition in [5] was 6%; in data set [6] it was 19%.
In the case of `[3H]c1cc(OC(C)C)nc([3H])c1-c1n[nH]c2ccc(NC(=O)[C@]3(SC)CCN(CC(=O)N4CC=C(c5ccc(-c6ncn(C)n6)cc5)CC4)C3)cc12`, the Drug metabolism result in [17], in [18], in data set [19], in data set [20], in data set [21] and in [22] was “Metabolite_Detected” throughout. In addition, the Drug metabolism entry in [23], in data set [24], in data set [25], in data set [26], in data set [27] and in data set [28] was “Metabolite_Detected” throughout. For the same molecule, the Drug metabolism result in data set [29] and in data set [30] was “Metabolite_Notdetected” throughout.
In the case of `CS[C@@]1(C(=O)Nc2ccc3[nH]nc(-c4ccc(F)cc4)c3c2)CCN(CC(=O)N2CCC(c3ccc(-c4ncccn4)cc3)CC2)C1`, the IC50 in data set [1] stood at 43 nM; in [2], 23 nM; in [3], 245 nM; in data set [4], 76 nM. Also, the results for the inhibition in [5] and in data set [6] were 22% and 12%, respectively.
For `CCNc1nnc(-c2ccc(C3=CCN(C(=O)CN4CC[C@@](SC)(C(=O)Nc5ccc6[nH]nc(-c7ccc(F)cc7)c6c5)C4)CC3)cc2)o1`, the IC50 in data set [1] turned out to be 17 nM; in data set [2], 5 nM; in data set [3] it was 49 nM; in data set [4] it was 22 nM. In addition, the inhibition in [5] is -3%; in data set [6], 6%.
For `COc1cc(-c2n[nH]c3ccc(NC(=O)[C@]4(SC)CCN(CC(=O)N5CC=C(c6ccc(-c7ncn(C)n7)cc6)CC5)C4)cc23)ccn1`, the concentration for half-maximal inhibition (IC50) was 7.9 nM in [1], 1.7 nM in [2], 80 nM in data set [3] and 10 nM in data set [4]. Besides, the inhibition at 1 µM in data set [10] was 0.8%. In data set [11], the inhibition at 10 µM came to 7.2%.
With `CC(C)Oc1ccc(-c2n[nH]c3ccc(NC(=O)[C@]4(S(C)(=O)=O)CCN(CC(=O)N5CC=C(c6ccc(-c7ncn(C)n7)cc6)CC5)C4)cc23)cn1`, the IC50 was found to be 228 nM in data set [1], 29 nM in data set [2], 243 nM in data set [3] and 86 nM in data set [4]. Besides, the inhibition at 1 µM in [10] was 4%. Moreover, in data set [11], the inhibition at 10 µM was determined as 5%.
